Consider eight compounds from paper PMC5218472 (PLoS Biology, 2017).

Data set [1] is described as follows: In vitro cleavage assay of IL-6R (glyco)peptides with recombinant ADAM17. To be noted: human, isolated enzyme; 50 μM peptide, 25 mM Hepes pH 9.0, recombinant catalytic domain of ADAM17, 16 h, 37°C, reverse phase C18 chromatography, peak areas; mean of 3 independent experiments; read-out: intact peptide after incubation with ADAM17 (untreated peptide = 100), mean. The method, then:
(§1) Fig 7 The N- and O-glycosylated sequon adjacent to the cleavage site is of minor importance for IL-6R cleavage. (A) Amino-acid sequence of the two unglycosylated peptides 1(QD) and 2(QA). Peptides were incubated either with or without recombinant ADAM17 for 16 h at 37°C, and the amount of cleaved peptide was analyzed by reversed-phase (RP) chromatography. (B) Amino-acid sequence of the two glycopeptides 3(QD) and 4(QA), which have a GlcNAc attached to the amino-acid residue corresponding to Asn-350 of the IL-6R. Cleavage was determined as described in panel (A). (C) Amino-acid sequence of the two glycopeptides 5(QD) and 6(QA), which have a biantennary N-glycan attached to the amino-acid residue corresponding to Asn-350 of the IL-6R. Cleavage was determined as described in panel (A). (D) Amino-acid sequence of the two glycopeptides 7(QD) and 8(QA), which have a GalNAc attached to the amino-acid residue corresponding toThr-352 of the IL-6R. Cleavage was determined as described in panel (A). (E) Amino-acid sequence of the two glycopeptides 9(QD) and 10(QA), which have a biantennary N-glycan attached to the amino-acid residue corresponding to Asn-350 and a GalNAc attached to the amino-acid residue corresponding toThr-352 of the IL-6R. Cleavage was determined as described in panel (A). All data shown are the mean ± SD from three independent experiments (*p < 0.05, **p < 0.01, ***p < 0.001, compared to the untreated peptide; ^§p < 0.05, compared to the cleaved nonglycosylated peptide).
(§2) Two 1.5 ml reaction tubes were filled with 50 μl peptide (50 μM) solved in 25 mM Hepes (pH 9.0), and 0.5 μl of the recombinant catalytic domain of ADAM17 was added to one of the reaction tubes, whereas the other sample remained untreated. All samples were incubated for 16 h at 37°C. Afterwards, 1,150 μl 0.1% TFA was added to each sample, and the peptides were separated on a reverse phase chromatography column (Multo High Bio-200-C18) from Chromatographie Service (Langerwehe, Germany) using a linear gradient elution with a binary solvent system and a flow rate of 1 ml/min. Solvent A consisted of 0.1% TFA, and solvent B consisted of 100% ACN. After peak integration, peak areas for cleaved and noncleaved peptides were determined.

The target in data set [2] is T1, recombinant catalytic domain of ADAM17 (Homo sapiens, UniProt P78536).
T1 construct: catalytic domain (aa Pro-18 to Val-477) of ADAM17; purchased Enzo Life Sciences GmbH (Lörrach, Germany)
The data set is described as above. To be noted: 50 μM peptide, 25 mM Hepes pH 9.0, 16 h, 37°C, RP chromatography. How it is done:
as §1, §2

Data set [3] concerns ADAM10 / ADAM17. Briefly: PMA-induced shedding of wild-type IL-6R in HEK293 cells after pretreatment with inhibitors GI or GW, ELISA (Fig 9B). Format: cell-based, human. To be noted: HEK293, wild-type IL-6R; PMA stimulation, GI or GW given as pretreatment before PMA; mean of n = 3. The method, then: (§3) Fig 9 An IL-6R devoid of all N-glycans is defective in ADAM17-mediated proteolysis. (A) PMA-mediated ectodomain shedding of IL-6R-5N with a stably transduced Ba/F3-gp130 cell line. Data shown are the mean ± SD from three independent experiments compared to wild-type IL-6R. (B) HEK293 cells were transiently transfected with a cDNA encoding wild-type IL-6R. Cells were pretreated with the ADAM10-specific inhibitor GI or the combined ADAM10/ADAM17-specific inhibitor GW for 30 min and then stimulated with 100 nM PMA for 2 h as indicated. The amount of sIL-6R in the cell supernatant was determined by ELISA. One out of three experiments with similar outcomes is shown (mean ± SD, n = 3). (C) The experiment was performed as described under (B), but sIL-6R was precipitated from cell supernatant and analyzed by western blot. Furthermore, the cells were lysed, and IL-6R expression in the lysates was also determined by western blot. β-actin served as loading control. […] (D, E) The experiment was performed as described in […], but HEK293 cells were transiently transfected with a cDNA encoding IL-6R-5N. nd, not detected. (F) Cell-surface expression of the IL-6R-5N variant on transiently transfected HEK293 cells analyzed via flow cytometry (black histogram). […] The expression of all proteins (input) and the interaction of the IL-6R variants with MPD17-CANDIS were analyzed via western blot. […]

Data set [4] deals with ADAM10 / ADAM17. The data set is described as follows: PMA-induced shedding of IL-6R-5N in HEK293 cells after pretreatment with inhibitors GI or GW, ELISA (Fig 9D). Format: cell-based, human. To be noted: HEK293, IL-6R-5N; PMA stimulation, GI or GW given as pretreatment before PMA; mean of n = 3. How it is done: as §3
Data set [5] relates to recombinant catalytic domain of ADAM17. Briefly: recombinant catalytic domain of ADAM17 in 25 mM Hepes (pH 9.0). As to conditions: 37°C, up to 16 h.

Residues, ends and D or L forms follow the SMILES beside them. *: point of attachment. X1 = CC(=O)N[C@@H]1[C@@H](O)[C@H](O[C@@H]2O[C@H](CO)[C@@H](O[C@@H]3O[C@H](CO[C@H]4O[C@H](CO)[C@@H](O)[C@H](O)[C@@H]4O[C@@H]4O[C@H](CO)[C@@H](O[C@@H]5O[C@H](CO)[C@H](O)[C@H](O)[C@H]5O)[C@H](O)[C@H]4NC(C)=O)[C@@H](O)[C@H](O[C@H]4O[C@H](CO)[C@@H](O)[C@H](O)[C@@H]4O[C@@H]4O[C@H](CO)[C@@H](O[C@@H]5O[C@H](CO)[C@H](O)[C@H](O)[C@H]5O)[C@H](O)[C@H]4NC(C)=O)[C@@H]3O)[C@H](O)[C@H]2NC(C)=O)[C@@H](CO)O[C@H]1N*; αGalNAc = CC(=O)N[C@@H]1[C@@H](O)[C@@H](O)[C@@H](CO)O[C@@H]1*

T1 sequence (P78536 18-477): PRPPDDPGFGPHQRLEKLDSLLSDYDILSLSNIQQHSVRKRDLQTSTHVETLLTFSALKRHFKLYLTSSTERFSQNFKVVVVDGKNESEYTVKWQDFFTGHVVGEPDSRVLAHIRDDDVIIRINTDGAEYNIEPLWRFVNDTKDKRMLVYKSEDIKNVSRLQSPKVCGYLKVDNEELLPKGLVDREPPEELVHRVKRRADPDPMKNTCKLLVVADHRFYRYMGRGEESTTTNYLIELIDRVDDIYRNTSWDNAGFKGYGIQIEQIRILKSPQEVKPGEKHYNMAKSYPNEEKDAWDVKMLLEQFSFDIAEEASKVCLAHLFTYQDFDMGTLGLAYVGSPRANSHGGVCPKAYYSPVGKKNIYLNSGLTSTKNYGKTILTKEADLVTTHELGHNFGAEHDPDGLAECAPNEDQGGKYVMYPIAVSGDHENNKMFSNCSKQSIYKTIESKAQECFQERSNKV

Take `CC[C@H](C)[C@H](NC(=O)[C@@H](N)CC(N)=O)C(=O)N[C@@H](CC(C)C)C(=O)N[C@@H](Cc1ccccc1)C(=O)N[C@@H](CCCNC(=N)N)C(=O)N[C@@H](CC(=O)O)C(=O)N[C@@H](CO)C(=O)N[C@@H](C)C(=O)N[C@@H](CC(=O)N[C@@H]1O[C@H](CO)[C@@H](O[C@@H]2O[C@H](CO)[C@@H](O[C@@H]3O[C@H](CO[C@H]4O[C@H](CO)[C@@H](O)[C@H](O)[C@@H]4O[C@@H]4O[C@H](CO)[C@@H](O[C@@H]5O[C@H](CO)[C@H](O)[C@H](O)[C@H]5O)[C@H](O)[C@H]4NC(C)=O)[C@@H](O)[C@H](O[C@H]4O[C@H](CO)[C@@H](O)[C@H](O)[C@@H]4O[C@@H]4O[C@H](CO)[C@@H](O[C@@H]5O[C@H](CO)[C@H](O)[C@H](O)[C@H]5O)[C@H](O)[C@H]4NC(C)=O)[C@@H]3O)[C@H](O)[C@H]2NC(C)=O)[C@H](O)[C@H]1NC(C)=O)C(=O)N[C@@H](C)C(=O)N[C@H](C(=O)N[C@@H](CO)C(=O)N[C@@H](CC(C)C)C(=O)N1CCC[C@H]1C(=O)N[C@H](C(=O)N[C@@H](CCC(N)=O)C(=O)N[C@@H](CC(=O)O)C(=O)N[C@@H](CO)C(=O)N[C@@H](CO)C(=O)N[C@@H](CO)C(=O)N[C@H](C(=O)N1CCC[C@H]1C(=O)N[C@@H](CC(C)C)C(=O)N1CCC[C@H]1C(=O)O)C(C)C)C(C)C)[C@@H](C)O` [5(QD)] (H-NILFRDSAD(X1)ATSLPVQDSSSVPLP-OH; N-terminus and C-terminus assumed): the remaining at 16 h in data set [1] was determined as 102%. In addition, the “cleavage by recombinant ADAM17, in words” value in data set [2] is “blocked cleavage”.

With `CC[C@H](C)[C@H](NC(=O)[C@@H](N)CC(N)=O)C(=O)N[C@@H](CC(C)C)C(=O)N[C@@H](Cc1ccccc1)C(=O)N[C@@H](CCCNC(=N)N)C(=O)N[C@@H](CC(=O)O)C(=O)N[C@@H](CO)C(=O)N[C@@H](C)C(=O)N[C@@H](CC(=O)N[C@@H]1O[C@H](CO)[C@@H](O[C@@H]2O[C@H](CO)[C@@H](O[C@@H]3O[C@H](CO[C@H]4O[C@H](CO)[C@@H](O)[C@H](O)[C@@H]4O[C@@H]4O[C@H](CO)[C@@H](O[C@@H]5O[C@H](CO)[C@H](O)[C@H](O)[C@H]5O)[C@H](O)[C@H]4NC(C)=O)[C@@H](O)[C@H](O[C@H]4O[C@H](CO)[C@@H](O)[C@H](O)[C@@H]4O[C@@H]4O[C@H](CO)[C@@H](O[C@@H]5O[C@H](CO)[C@H](O)[C@H](O)[C@H]5O)[C@H](O)[C@H]4NC(C)=O)[C@@H]3O)[C@H](O)[C@H]2NC(C)=O)[C@H](O)[C@H]1NC(C)=O)C(=O)N[C@@H](C)C(=O)N[C@H](C(=O)N[C@@H](CO)C(=O)N[C@@H](CC(C)C)C(=O)N1CCC[C@H]1C(=O)N[C@H](C(=O)N[C@@H](CCC(N)=O)C(=O)N[C@@H](C)C(=O)N[C@@H](CO)C(=O)N[C@@H](CO)C(=O)N[C@@H](CO)C(=O)N[C@H](C(=O)N1CCC[C@H]1C(=O)N[C@@H](CC(C)C)C(=O)N1CCC[C@H]1C(=O)O)C(C)C)C(C)C)[C@@H](C)O` [6(QA)] (H-NILFRDSAD(X1)ATSLPVQASSSVPLP-OH; N-terminus and C-terminus assumed), in data set [1], the remaining at 16 h was 2.44%. Further, the “cleavage by recombinant ADAM17, in words” value in data set [2] is given as “did not alter processing”.

As to `CC[C@H](C)[C@H](NC(=O)[C@@H](N)CC(N)=O)C(=O)N[C@@H](CC(C)C)C(=O)N[C@@H](Cc1ccccc1)C(=O)N[C@@H](CCCNC(=N)N)C(=O)N[C@@H](CC(=O)O)C(=O)N[C@@H](CO)C(=O)N[C@@H](C)C(=O)N[C@@H](CC(=O)N[C@@H]1O[C@H](CO)[C@@H](O[C@@H]2O[C@H](CO)[C@@H](O[C@@H]3O[C@H](CO[C@H]4O[C@H](CO)[C@@H](O)[C@H](O)[C@@H]4O[C@@H]4O[C@H](CO)[C@@H](O[C@@H]5O[C@H](CO)[C@H](O)[C@H](O)[C@H]5O)[C@H](O)[C@H]4NC(C)=O)[C@@H](O)[C@H](O[C@H]4O[C@H](CO)[C@@H](O)[C@H](O)[C@@H]4O[C@@H]4O[C@H](CO)[C@@H](O[C@@H]5O[C@H](CO)[C@H](O)[C@H](O)[C@H]5O)[C@H](O)[C@H]4NC(C)=O)[C@@H]3O)[C@H](O)[C@H]2NC(C)=O)[C@H](O)[C@H]1NC(C)=O)C(=O)N[C@@H](C)C(=O)N[C@H](C(=O)N[C@@H](CO)C(=O)N[C@@H](CC(C)C)C(=O)N1CCC[C@H]1C(=O)N[C@H](C(=O)N[C@@H](CCC(N)=O)C(=O)N[C@@H](CC(=O)O)C(=O)N[C@@H](CO)C(=O)N[C@@H](CO)C(=O)N[C@@H](CO)C(=O)N[C@H](C(=O)N1CCC[C@H]1C(=O)N[C@@H](CC(C)C)C(=O)N1CCC[C@H]1C(=O)O)C(C)C)C(C)C)[C@@H](C)O[C@H]1O[C@H](CO)[C@H](O)[C@H](O)[C@H]1NC(C)=O` [9(QD)] (H-NILFRDSAD(X1)AT(αGalNAc)SLPVQDSSSVPLP-OH; N-terminus and C-terminus assumed), the remaining at 16 h in data set [1] stood at 95.6%. For the same compound, the “cleavage by recombinant ADAM17, in words” value in data set [2] was “again blocked”.

Consider `CNC(=O)[C@@H](NC(=O)[C@H](CCCc1ccccc1)[C@H](C)N(O)C=O)C(C)(C)C` [GI], for which the “sIL-6R in supernatant (ELISA), Figure 9B, mean” value in the data set on ADAM10 / ADAM17 [3] came out at 48715.8. Also, the “sIL-6R in supernatant (ELISA), Figure 9D, mean” value with ADAM10 / ADAM17 [4] amounted to 0.

Take `CCCCCCCCCCCCCC(=O)O[C@@H]1[C@@H](C)[C@@]2(O)[C@@H](C=C(CO)C[C@]3(O)C(=O)C(C)=C[C@@H]23)[C@@H]2C(C)(C)[C@]12OC(C)=O` [PMA, phorbol-12-myristate-13-acetate]: the “sIL-6R in supernatant (ELISA), Figure 9B, mean” value with ADAM10 / ADAM17 [3] worked out at 71566.4. In addition, the “sIL-6R in supernatant (ELISA), Figure 9D, mean” value in the data set with ADAM10 / ADAM17 [4] is on record as 0.

Consider NILFRDSANATSLPVQDSSSVPLP [5(QD)], for which the not cleaved result in data set [5] is given as “cleavage blocked; mean 101.852% intact after 16 h”.

For the compound NILFRDSANATSLPVQDSSSVPLP [7(QD)], the not cleaved in data set [5] is 91% ± 8% after 16 h.

For the compound NILFRDSANATSLPVQDSSSVPLP [9(QD)], the not cleaved entry in data set [5] is “cleavage blocked; mean 95.585% intact after 16 h”.
